In patent US7112680B2, “Heterocyclic hydrazones for use as anti-cancer agents” (Austria Wirtschaftsservice Gesellschaft MIT Beschrankter …, priority 2000, dated 2006):
Like-named read-outs stand apart in the source and are kept apart here.

Legend:
[1] = system: K562 (chronic myelogenous leukemia); assay: Inhibition of tumor cell growth, K562; assay type: cell-based, human; settings: 72 hours
Method: In order to obtain information about the growth-inhibiting action on tumor cells, the inhibition of the growth of the following human tumor cells was determined: Burkitt's lymphoma (CA 46, ATCC No. CRL 1648), CCRF-CEM (acute lymphoblastic leukemia, ATCC No. CCL 119), K562 (chronic myelogenous leukemia, ATTC No. CCL 243), HeLa (epitheloid cervix carcinoma, ATCC No. CCL 2), MEXF 276L (melanoma), HT-29 (colon adenocarcinoma, ATCC No. HTB 38), KB-3-1 (human oral epidermoid carcinoma, CTCC No. CCL 17), KB-HU hydroxyurea-resistant, multidrug-resistant KB-C1 cells (Akiyama et al, Cell. Mol Genet., 11:117–126, 1985). Burkitt's, CCRF-CEM, HeLa and MEXF 276L cells were grown in RPMI 1640, HT-29 cells in McCoy's 5A medium. The KB cell lines were grown in Dulbecco's modified Eagle's medium (4,5 g glucose/l). To the cultures of KB-C1 cells 1 μg of colchicine/ml, and to the hydroxyurea-resistant KB-HU cells 1 mM hydroxyurea was added every other week. The media were supplemented with 10% fetal calf serum (except Burkitt's lymphoma cells with 15%), 2 mM glutamine, 50 units/ml penicillin and 50 μg/ml streptomycin. Inhibition of growth of HeLa, HT-29, KB and MEXF 276L cells was detected by the SRB-assay (Skehan et al, J. Natl Cancer Inst., 82:1107–1112, 1990). 3,000 - 10,000 cells in 200 μl medium were seeded per well into 96-well plates. Dose-response curves for CCRF-CEM and Burkitt's lymphoma cells were effected by an MTT-assay (Mosman, J. Immunol Methods, 65:55–63, 1983) from Boehringer Mannheim, Mannheim, Germany. Approximately 10,000 cells per 100 μl were seeded in 96-well plates. After an initial incubation of four hours, various substance concentrations were added, and the cells were incubated at 37° C. in a water-saturated atmosphere of 95% air and 5% CO2 for 72 hours. The substances were dissolved in dimethylsulfoxide (DMSO). The concentration of DMSO was 0.5%, and this was not toxic to the cells. Subsequently, the samples were fixed, washed, and the absorption was determined by a microplate reader.

[2] = system: HeLa (epitheloid cervix carcinoma); assay: Inhibition of tumor cell growth, SRB-assay, HeLa; assay type: cell-based, human; settings: read-out: IC50 HeLa (converted)
[3] = system: HT-29 (colon adenocarcinoma); assay: Inhibition of tumor cell growth, SRB-assay, HT-29; assay type: cell-based, human; settings: read-out: IC50 HT-29 (converted)
Method: (§1) The KB cell lines were grown in Dulbecco's modified Eagle's medium (4,5 g glucose/l). To the cultures of KB-C1 cells 1 μg of colchicine/ml, and to the hydroxyurea-resistant KB-HU cells 1 mM hydroxyurea was added every other week. […] 3,000 - 10,000 cells in 200 μl medium were seeded per well into 96-well plates. […] Approximately 10,000 cells per 100 μl were seeded in 96-well plates. […] The substances were dissolved in dimethylsulfoxide (DMSO). […] Subsequently, the samples were fixed, washed, and the absorption was determined by a microplate reader.

[4] = system: human tumor grafts (cell lines of FIG. 1); assay: Colony forming assay (two-layer soft agar); assay type: cell-based; settings: for tumor type selectivity: colony forming assay, IC70 pattern, FIG. 1; for IC50 / IC90 / Mean IC70: mean values of all cell lines tested in FIG. 1, continuous exposure 3 to 6 days
Method: An excellent correlation of drug response in patients and the colony forming assay has been found (Scholz et al, Eur. J. Cancer 25:901–905, 1990). Solid human tumors were grown as grafts in nude mice, removed from the latter, mechanically comminuted and subsequently incubated in an enzyme cocktail consisting of collagenase (1.2–1.8 U/ml), DNAse (375 U/ml) and hyaluronidase (29 U/ml) in RPMI 1640 medium at 37° C. for 30 minutes. The cell mixture was passed through sieves of 200 μm and 50 μm mesh size and washed thereafter twice with PBS (phosphate buffered saline). The percentage of live cells was determined using a Neubauer counting chamber and trypan blue staining.
The colony forming assay was performed according to a two-layer agar technique introduced and modified by Hamburger and Salmon (Hamburger and Salmon, Science, 197:461–463, 1977). The bottom layer consisted of 0.2 ml of Iscoves's Modified Dulbecco's medium with 20% fetal calf serum and 0.75% agar. 8×10^3 to 1.6×10^4 cells were added to the same medium and 0.4% agar and plated in 24-multiwell plates onto the base layer. One day after the plating (with continuous exposure), the substances were added in 0.2 ml medium. Each plate included six controls containing the solvent only, and the treated groups contained 6 concentrations of the substances, each in triplicate. Cultures were incubated at 37° C. and 7% CO2 in a water-saturated atmosphere for 3 to 6 days, depending on the doubling time of the tumor cells. At the time of maximum colony formation with a size of […], counts were performed with an automatic image analysis system. 24 h prior to counting, live colonies were stained with a sterile aqueous solution of 2-(4-iodophenyl)-3-(4-nitrophenyl)-5-phenyltetrazolium chloride (1 mg/ml, 100 μl/well). The results of the tests are given in FIG. 1, and in the following Table 5, respectively. […] Columns pointing towards the right show a slighter than average activity.

[5] = system: Burkitt's lymphoma (CA 46, ATCC No. CRL 1648); assay: Inhibition of tumor cell growth, MTT-assay, Burkitt's lymphoma; assay type: cell-based, human; settings: read-out: IC50 Burkitts
Method: as §1

[6] = system: CCRF-CEM (acute lymphoblastic leukemia); assay: Inhibition of tumor cell growth, MTT-assay, CCRF-CEM; assay type: cell-based, human; settings: Table 2, 72 hours
MEXF 276L (melanoma) = assay: Inhibition of tumor cell growth, SRB-assay, MEXF 276L; assay type: cell-based, human; settings: Table 2, 72 hours
Method: as §1

SMILES	IC50 ([1]; Table 1) [nM]	IC50 ([2]; Table 1, 72 hours) [nM]	IC50 ([3]; Table 1, 72 hours) [nM]	IC50 [6] [nM]	IC50 (MEXF 276L (melanoma); read-out: IC50 MEXF276L) [nM]	IC50 ([2]; Table 2, 72 hours) [nM]	IC50 ([5]; Table 2, 72 hours) [nM]	IC50 ([3]; Table 2, 72 hours) [nM]	further results
Cn1c(NN=C(c2ccccn2)c2ccccn2)nc2ccccc21 [Ia-37]	30	90	4640						
Cn1c(NN=C(Cc2ccccc2)c2ccccn2)nc2ccccc21 [Ia-33]	120	24	14100						
Cn1c(NN=C(c2ccccc2)c2ccccn2)nc2ccccc21 [Ia-29]	60	9	8740						tumor type selectivity [4]: selectivity for colon, breast, ovarian, and uterus tumors; IC50 [4]: 294 nM; IC90 [4]: 4660 nM; Mean IC70 [4]: 741 nM
CCCn1c(NN=C(C)c2ccccn2)nc2ccccc21 [Ic-2]									IC50 ([1]; Table 3): 120 nM; IC50 ([2]; Table 3, 72 hours): 210 nM; IC50 ([5]; Table 3, 72 hours): 1280 nM; IC50 ([3]; Table 3, 72 hours): 35100 nM
CC(C)C(=NNc1nc2ccccc2n1C)c1ccccn1 [Ia-16]	50	6	5580						tumor type selectivity [4]: selectivity for colon, breast, ovarian, and uterus tumors; IC50 [4]: 188 nM; IC90 [4]: 3770 nM; Mean IC70 [4]: 521 nM
CC(=NNc1nc2ccccc2n1C1CC1)c1ccccn1 [Ic-6]									IC50 ([1]; Table 3): 90 nM; IC50 ([2]; Table 3, 72 hours): 400 nM; IC50 ([3]; Table 3, 72 hours): 11200 nM
Cn1c(NN=C(c2ccccn2)C2CC2)nc2ccccc21 [Ia-24, E/Z-Cyclopropyl-(2-pyridyl)-methanone-(1-methyl-1H-benzo[d]imidazol-2-yl)-hydrazone]	40	2	2880						tumor type selectivity [4]: selectivity for colon, breast, ovarian, and uterus tumors; IC50 [4]: 138 nM; IC90 [4]: 3140 nM; Mean IC70 [4]: 387 nM
CCn1c(NN=C(C)c2ccccn2)nc2ccccc21 [Ic-1, 1-(2-Pyridyl)-1-ethanone-1-(1-ethyl-1H-benzo[d]imidazol-2-yl)hydrazone]									IC50 ([1]; Homo sapiens, K562, Table 3): 60 nM; IC50 ([2]; Homo sapiens, HeLa, Table 3, 72 hours): 190 nM; IC50 ([5]; Homo sapiens, CA46, Table 3, 72 hours): 680 nM; IC50 ([3]; Homo sapiens, HT-29, Table 3, 72 hours): 11900 nM
CC(=NNc1nc2ccccc2n1C(C)C)c1ccccn1 [Ic-3]									IC50 ([1]; Table 3): 330 nM; IC50 [4]: 265 nM; IC90 [4]: 4300 nM; Mean IC70 [4]: 750 nM; IC50 ([2]; Table 3, 72 hours): 60 nM; IC50 ([5]; Table 3, 72 hours): 2140 nM; IC50 ([3]; Table 3, 72 hours): 16100 nM
CCC(=NNc1nc2ccccc2n1C)c1ccccn1 [Ia-8]	90	20	11000						IC50 ([5]; Table 1, 72 hours): 1010 nM
CC(=NNc1nc2ccccc2[nH]1)c1cc(C)ncn1 [Ib-9]				660	1140	890	390	360	
CC(=NNc1nc2ccccc2n1Cc1ccccc1)c1ccccn1 [Ic-8]									IC50 ([1]; Table 3): 450 nM; IC50 ([2]; Table 3, 72 hours): 130 nM; IC50 ([5]; Table 3, 72 hours): 3580 nM; IC50 ([3]; Table 3, 72 hours): 160 nM
CC(=NNc1nc2ccccc2[nH]1)c1ccncn1 [Ib-6, 1-(4-Pyrimidinyl)-1-ethanone-1-(1H-benzo[d]imidazol-2-yl)-hydrazone]									IC50 ([6]; Homo sapiens, CCRF-CEM): 410 nM; IC50 (MEXF 276L (melanoma); Homo sapiens, MEXF276L): 910 nM; IC50 ([2]; Homo sapiens, HeLa, Table 2, 72 hours): 880 nM; IC50 ([5]; Homo sapiens, CA46, Table 2, 72 hours): 560 nM; IC50 ([3]; Homo sapiens, HT-29, Table 2, 72 hours): 570 nM
CC(=NNc1nc2ccccc2o1)c1cnc(C)cn1 [Ib-17]				620	1660	370	150	280	
CC(=NNc1nc2ccccc2[nH]1)c1ncccn1 [Ib-25]				200	960	630	220	420	
CC(=NNc1nc2ccccc2[nH]1)c1ccc(C)nn1 [Ib-4]				1300	2360	1990	1870	1960	
CC(=NNc1nc2ccccc2o1)c1ccc(C)nn1 [Ib-5]				460	2250	1610	840	1040	
CC(=NNc1nc2ccccc2o1)c1nccnc1C [Ib-15]				1300	5380	1870	910	2150	
CC(=NNc1nc2ccccc2o1)c1ccncn1 [Ib-8]				340	1300	410	140	230	
CC(=NNc1nc2ccccc2[nH]1)c1cnc(C)cn1 [Ib-16]				840	2000	1490	1220	880	
